Measured values: patent US10835170B2, “Methods for detecting neuronal oscillation in the spinal cord associated with pain and diseases or disorders of the nervous system” (Rhode Island Hospital, priority 2015, dated 2020)

Test system: spinal cord dorsal horn (L4) neuronal oscillation
Assay: Spinal cord dorsal horn LFP/PSD recording after intradermal capsaicin injection (model of acute pain)
Assay type: in vivo, rat
Details: anesthetized rats, FIG. 1B
Procedure: FIG. 1A is a schematic showing electrode placement in the spinal cord dorsal horn (L4) for the recoding of local field potential (LFP) from anesthetized rats (n=3 rats/group).
Experiments were conducted on anesthetized Sprague Dawley rats (200-250 g). […] LFP was sampled at a high frequency (25,000 Hz) and down-sampled offline to 250 Hz.
Natural sensory stimuli (e.g. brush and pinch) and intradermal injections of capsaicin were applied to the receptive field in the hindpaw corresponding to the recording site in the spinal cord. […] PSD plots the distribution of the power amplitude of a waveform as a function of frequency. Spontaneous oscillation in the spinal cord dorsal horn was enhanced compared to baseline LFP recording in response to capsaicin injection in the ipsilateral foot within physiologically relevant frequency bands, e.g., theta and alpha, oscillated at baseline. […] Thus, oscillation was normalized with systemic administration of an analgesic compound.

Row | SMILES | Spontaneous oscillation in the spinal cord dorsal horn (PSD) compared to baseline LFP recording (intradermal 5% capsaicin injection in the ipsilateral foot, theta and alpha bands) | Effect on capsaicin-enhanced PSD normalized to baseline (ibuprofen 400 mg/Kg intraperitoneally, after intradermal 5% capsaicin, n=3 rats/group)
1 | COc1cc(CNC(=O)CCCC/C=C/C(C)C)ccc1O [capsaicin] | enhanced | 
2 | CC(C)Cc1ccc(C(C)C(=O)O)cc1 (centres unmarked) [ibuprofen] |  | mitigation of the enhanced PSD
